As usually defined, the IC50 is the concentration at which inhibition is half-maximal. Read a low IC50 as greater potency.

This test deals with full-length human PIKFYVE (Homo sapiens (Human), UniProt Q9Y2I7, L932S/Q1183K/Q995L/S1033A/S696N/T998S). The test is described as follows: PIKfyve biochemical assay (ADP-Glo Kinase assay, Carna Biosciences). The text has this: PIKfyve Biochemical Assay. The biochemical […] inhibition assays were run by Carna Biosciences according to proprietary methodology based on the Promega […] Kinase assay. […] NP_055855.2] was expressed as N-terminal GST-fusion protein (265 kDa) using baculovirus expression system. GST-PIKFYVE was purified by using glutathione sepharose chromatography and used in an ADP-GloTM Kinase assay (Promega). Reactions were set up by adding the test compound solution, substrate solution, ATP solution and kinase solution, each at 4× final concentrations. Reactions were prepared with assay buffer (50 mM MOPS, 1 mM DTT, pH7.2), mixed, and incubated in black 384 well polystyrene plates for 1 hour at room temperature. ADP-Glo^TM reagent was then added for 40 minutes, followed by kinase detection reagent for an additional 40 minutes. The kinase activity was evaluated by detecting relative light units on a luminescence plate reader. […] IC50 values were calculated from concentration vs % inhibition curves by fitting to a four-parameter logistic curve. […] The biochemical […] inhibition assays were run by Carna Biosciences according to proprietary methodology based on the Promega ADP-GloTM Kinase assay. […] GST-PIKFYVE was purified by using glutathione sepharose chromatography and used in an ADP-GIoTM Kinase assay (Promega). Reactions were set up by adding the test compound solution, substrate solution, ATP solution and kinase solution, each at 4× final concentrations. Reactions were prepared with assay buffer (50 mM MOPS, 1 mM DTT, pH7.2), mixed, and incubated in black 384 well polystyrene plates for 1 hour at room temperature. ADP-GIoTM reagent was then added for 40 minutes, followed by kinase detection reagent for an additional 40 minutes. The kinase activity was evaluated by detecting relative light units on a luminescence plate reader. […] IC50 values were calculated from concentration vs % inhibition curves by fitting to a four-parameter logistic curve. […] The same compounds were also tested in both FAB1 and PIKFYVE TDP-43 yeast models.
Chain of full-length human PIKFYVE (Q9Y2I7 whole entry S696N/L932S/Q995L/T998S/S1033A/Q1183K, the tested form may be a part): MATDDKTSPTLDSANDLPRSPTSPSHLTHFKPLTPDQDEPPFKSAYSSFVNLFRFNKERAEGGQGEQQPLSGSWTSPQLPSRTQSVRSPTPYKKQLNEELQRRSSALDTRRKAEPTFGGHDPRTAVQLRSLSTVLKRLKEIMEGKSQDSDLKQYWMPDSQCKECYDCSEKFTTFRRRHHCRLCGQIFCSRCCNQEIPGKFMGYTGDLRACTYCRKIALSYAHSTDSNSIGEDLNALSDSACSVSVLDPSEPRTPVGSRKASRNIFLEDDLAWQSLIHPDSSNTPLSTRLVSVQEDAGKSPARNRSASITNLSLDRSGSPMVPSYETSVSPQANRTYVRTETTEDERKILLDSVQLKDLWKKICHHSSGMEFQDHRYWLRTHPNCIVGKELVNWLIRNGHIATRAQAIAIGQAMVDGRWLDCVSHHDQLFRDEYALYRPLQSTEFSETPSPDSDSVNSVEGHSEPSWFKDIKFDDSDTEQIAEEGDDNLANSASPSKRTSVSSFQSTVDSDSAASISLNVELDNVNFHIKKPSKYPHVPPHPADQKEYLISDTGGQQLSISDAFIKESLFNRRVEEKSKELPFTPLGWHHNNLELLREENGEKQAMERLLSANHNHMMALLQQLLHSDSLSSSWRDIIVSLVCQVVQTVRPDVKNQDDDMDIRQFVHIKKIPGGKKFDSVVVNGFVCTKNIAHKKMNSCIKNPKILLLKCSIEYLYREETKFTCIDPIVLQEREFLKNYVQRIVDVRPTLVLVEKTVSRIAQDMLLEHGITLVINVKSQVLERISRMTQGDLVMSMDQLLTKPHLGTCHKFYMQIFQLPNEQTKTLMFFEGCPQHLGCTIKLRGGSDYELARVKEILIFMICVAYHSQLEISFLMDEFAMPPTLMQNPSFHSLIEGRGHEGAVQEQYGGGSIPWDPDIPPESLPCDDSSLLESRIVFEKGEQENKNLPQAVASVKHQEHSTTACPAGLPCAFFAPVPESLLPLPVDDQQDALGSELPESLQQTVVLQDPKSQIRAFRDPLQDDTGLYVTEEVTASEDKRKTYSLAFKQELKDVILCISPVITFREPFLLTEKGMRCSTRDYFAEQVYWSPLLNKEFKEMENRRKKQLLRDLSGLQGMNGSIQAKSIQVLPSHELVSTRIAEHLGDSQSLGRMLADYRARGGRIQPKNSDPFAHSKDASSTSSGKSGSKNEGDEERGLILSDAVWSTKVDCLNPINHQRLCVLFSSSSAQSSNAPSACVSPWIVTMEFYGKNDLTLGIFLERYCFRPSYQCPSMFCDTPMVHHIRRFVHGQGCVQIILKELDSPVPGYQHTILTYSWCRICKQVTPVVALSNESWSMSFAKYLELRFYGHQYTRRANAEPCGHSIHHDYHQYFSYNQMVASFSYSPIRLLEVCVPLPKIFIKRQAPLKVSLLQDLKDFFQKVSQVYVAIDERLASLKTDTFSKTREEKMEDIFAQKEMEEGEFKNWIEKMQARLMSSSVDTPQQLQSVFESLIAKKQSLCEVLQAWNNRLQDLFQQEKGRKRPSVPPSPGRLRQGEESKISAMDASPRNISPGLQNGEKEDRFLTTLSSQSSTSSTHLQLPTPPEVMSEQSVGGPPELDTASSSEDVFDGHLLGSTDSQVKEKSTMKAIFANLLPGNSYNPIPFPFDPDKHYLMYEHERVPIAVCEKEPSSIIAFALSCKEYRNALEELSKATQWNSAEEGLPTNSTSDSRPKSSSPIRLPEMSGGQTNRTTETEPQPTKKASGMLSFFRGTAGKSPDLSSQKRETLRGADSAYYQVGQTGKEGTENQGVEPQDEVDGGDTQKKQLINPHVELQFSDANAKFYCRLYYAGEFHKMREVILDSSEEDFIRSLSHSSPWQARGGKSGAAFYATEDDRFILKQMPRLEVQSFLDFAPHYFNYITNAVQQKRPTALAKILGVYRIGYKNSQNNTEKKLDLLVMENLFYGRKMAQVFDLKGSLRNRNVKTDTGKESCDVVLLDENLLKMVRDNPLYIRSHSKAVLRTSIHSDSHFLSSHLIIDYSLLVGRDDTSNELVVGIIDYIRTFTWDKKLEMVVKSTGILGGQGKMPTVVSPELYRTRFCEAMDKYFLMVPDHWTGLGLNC
For orientation: In ADP-Glo the light output rises with the ADP produced.

Compound `Cc1cccc(C(=O)COc2cc(N3CCOCC3)n3nc(-c4ccncc4)cc3n2)c1` [Compound 125, 2-((7-morpholino-2-(pyridin-4-yl)pyrazolo[1,5-a]pyrimidin-5-yl)oxy)-1-(m-tolyl)ethan-1-one] registered an IC50 (class symbols) of 1000 to 10000 nM.

As to `Fc1cncc(-c2ccn(-c3cc(N4CCOCC4)n4nc(-c5ccncc5)cc4n3)n2)c1` [Compound 60, 4-(5-(3-(5-fluoropyridin-3-yl)-1H-pyrazol-1-yl)-2-(pyridin-4-yl)pyrazolo[1,5-a]pyrimidin-7-yl)morpholine], the IC50 (class symbols) lay in the range of 100 to 1000 nM.

As to `c1ccc(-c2ccn(-c3cc(N4CCOCC4)n4nc(-c5ccncc5)cc4n3)n2)nc1` [Compound 70, 4-(5-(3-(pyridin-2-yl)-1H-pyrazol-1-yl)-2-(pyridin-4-yl)pyrazolo[1,5-a]pyrimidin-7-yl)morpholine], the IC50 (class symbols) is 100 to 1000 nM.

The compound `c1ccc(-c2ccn(-c3cc(N4CCOCC4)n4nc(-c5ccncc5)cc4n3)n2)cc1` [Compound 148] showed an IC50 (class symbols) of 10 to 100 nM.

For `Fc1ccc(Oc2ncccc2-c2cc(N3CCOCC3)n3nc(-c4ccncc4)cc3n2)cc1` [Compound 138, 4-(5-(2-(4-fluorophenoxy)pyridin-3-yl)-2-(pyridin-4-yl)pyrazolo[1,5-a]pyrimidin-7-yl)morpholine], where the note is “class symbols”, the IC50 lay within 100 to 1000 nM.

Where the note is “class symbols”, `c1ccc(Cc2nccc(-c3cc(N4CCOCC4)n4nc(-c5ccncc5)cc4n3)n2)cc1` [Compound 140, 4-(5-(2-benzylpyrimidin-4-yl)-2-(pyridin-4-yl)pyrazolo[1,5-a]pyrimidin-7-yl)morpholine] had a 50% inhibitory concentration (IC50) of 100 to 1000 nM.

Compound `c1cc(-c2cc3nc(-n4ccc(C5CCCNC5)n4)cc(N4CCOCC4)n3n2)ccn1` (single isomer, unassigned) [Compound 75, 4-(5-(3-(piperidin-3-yl)-1H-pyrazol-1-yl)-2-(pyridin-4-yl)pyrazolo[1,5-a]pyrimidin-7-yl)morpholine] gave an IC50 (class symbols) of 100 to 1000 nM.

`O=c1c(-c2ccccc2)ccnn1-c1cc(N2CCOCC2)n2nc(-c3ccncc3)cc2n1` [Compound 5, 2-(7-morpholino-2-(pyridin-4-yl)pyrazolo[1,5-a]pyrimidin-5-yl)-4-phenylpyridazin-3(2H)-one] yielded an IC50 (class symbols) of 100 to 1000 nM.

`Fc1cccc(-c2nccc(-c3cc(N4CCOCC4)n4nc(-c5ccncc5)cc4n3)n2)c1` [Compound 139, 4-(5-(2-(3-fluorophenyl)pyrimidin-4-yl)-2-(pyridin-4-yl)pyrazolo[1,5-a]pyrimidin-7-yl)morpholine] gave an IC50 (class symbols) of 100 to 1000 nM.

Take `c1c(-n2cc3c(n2)CCOC3)nc2cc(C3CCCO3)nn2c1N1CCOCC1` (stereo not drawn) [Compound 99, 2-(7-morpholino-2-(tetrahydrofuran-2-yl)pyrazolo[1,5-a]pyrimidin-5-yl)-2,4,6,7-tetrahydropyrano[4,3-c]pyrazole]: under “class symbols”, the IC50 is greater than 10000 nM.

`N#Cc1cc(N2CCOCC2)n2nc(-c3ccncc3)cc2n1` [Compound 103, 7-morpholino-2-(pyridin-4-yl)pyrazolo[1,5-a]pyrimidine-5-carbonitrile] yielded an IC50 (class symbols) greater than 10000 nM.

As for `c1ccc(-c2cc(N3CCOCC3)n3nc(-c4ccncc4)cc3n2)nc1` [Compound 132], the IC50 (class symbols) lay in the range of 100 to 1000 nM.

As to `c1cc(-c2cc3nc(-n4ccc(C5CCCNC5)n4)cc(N4CCOCC4)n3n2)ccn1` (stereo not drawn) [Compound 67, 4-(5-(3-(piperidin-3-yl)-1H-pyrazol-1-yl)-2-(pyridin-4-yl)pyrazolo[1,5-a]pyrimidin-7-yl)morpholine], the IC50 (class symbols) is 100 to 1000 nM.

In the case of `CC1(CCc2ccn(-c3cc(N4CCOCC4)n4nc(-c5ccncc5)cc4n3)n2)CC1` [Compound 84, 4-(5-(3-(2-(1-methylcyclopropyl)ethyl)-1H-pyrazol-1-yl)-2-(pyridin-4-yl)pyrazolo[1,5-a]pyrimidin-7-yl)morpholine], the IC50 (class symbols) lay in the range of 1000 to 10000 nM.

`c1ccc(-c2nnc(-c3cc(N4CCOCC4)n4nc(-c5ccncc5)cc4n3)o2)cc1` [Compound 130, 4-(5-(5-phenyl-1,3,4-oxadiazol-2-yl)-2-(pyridin-4-yl)pyrazolo[1,5-a]pyrimidin-7-yl)morpholine]: the IC50 (class symbols) lay within 1000 to 10000 nM.

`Oc1cc(-c2cc(N3CCOCC3)n3nc(-c4ccncc4)cc3n2)nn1-c1cccnc1` [Compound 58, 3-(7-morpholino-2-(pyridin-4-yl)pyrazolo[1,5-a]pyrimidin-5-yl)-1-(pyridin-3-yl)-1H-pyrazol-5-ol] displayed an IC50 (class symbols) of 10 to 100 nM.

`Cc1ccccc1-c1cc(O)n(-c2cc(N3CCOCC3)n3nc(-c4ccncc4)cc3n2)n1` [Compound 46, 1-(7-morpholino-2-(pyridin-4-yl)pyrazolo[1,5-a]pyrimidin-5-yl)-3-(o-tolyl)-1H-pyrazol-5-ol] came in with a 50% inhibitory concentration (IC50) (class symbols) of 10 to 100 nM.

Consider `c1cc(-c2cc3nc(-n4ccc(-c5ccnnc5)n4)cc(N4CCOCC4)n3n2)ccn1` [Compound 69, 4-(5-(3-(pyridazin-4-yl)-1H-pyrazol-1-yl)-2-(pyridin-4-yl)pyrazolo[1,5-a]pyrimidin-7-yl)morpholine], for which the IC50 (class symbols) lay within 100 to 1000 nM.

`c1ccc(CN2CCCC2c2cc(N3CCOCC3)n3nc(-c4ccncc4)cc3n2)cc1` (stereo not drawn) [Compound 124, 4-(5-(1-benzylpyrrolidin-2-yl)-2-(pyridin-4-yl)pyrazolo[1,5-a]pyrimidin-7-yl)morpholine]: the IC50 (class symbols) was in the range of 1000 to 10000 nM.

On to `c1ccc(Oc2ncccc2-c2cc(N3CCOCC3)n3nc(-c4ccncc4)cc3n2)cc1` [Compound 42, 4-(5-(2-phenoxypyridin-3-yl)-2-(pyridin-4-yl)pyrazolo[1,5-a]pyrimidin-7-yl)morpholine], for which the IC50 (class symbols) lay within 100 to 1000 nM.

In turn, `c1ccc(C2CN(c3cc(N4CCOCC4)n4nc(-c5ccncc5)cc4n3)C2)cc1` [Compound 32, 4-(5-(3-phenylazetidin-1-yl)-2-(pyridin-4-yl)pyrazolo[1,5-a]pyrimidin-7-yl)morpholine] returned an IC50 (class symbols) of 1000 to 10000 nM.

For the compound `Fc1cccc(-c2ccnn2-c2cc(N3CCOCC3)n3nc(-c4ccncc4)cc3n2)c1` [Compound 147, 4-(5-(5-(3-fluorophenyl)-1H-pyrazol-1-yl)-2-(pyridin-4-yl)pyrazolo[1,5-a]pyrimidin-7-yl)morpholine], the IC50 (numeric values) turned out to be 1570 nM.

`Cc1cccc(/C=N/Nc2cc(N3CC4CC3CO4)n3nc(-c4ccncc4)cc3n2)c1` (stereo not drawn) [Compound 1, (E)-5-(5-(2-(3-methylbenzylidene)hydrazinyl)-2-(pyridin-4-yl)pyrazolo[1,5-a]pyrimidin-7-yl)-2-oxa-5-azabicyclo[2.2.1]heptane] came in with an IC50 (class symbols) of 10 to 100 nM.

In turn, `Cc1cccc(CCOc2cc(N3CCOCC3)n3nc(-c4ccncc4)cc3n2)c1` [Compound 2, 4-(5-(3-methylphenethoxy)-2-(pyridin-4-yl)pyrazolo[1,5-a]pyrimidin-7-yl)morpholine] showed an IC50 (class symbols) of 1000 to 10000 nM.

Regarding `O=C1CC(c2ccccc2)CN1c1cc(N2CCOCC2)n2nc(-c3ccncc3)cc2n1` (stereo not drawn) [Compound 25, 1-(7-morpholino-2-(pyridin-4-yl)pyrazolo[1,5-a]pyrimidin-5-yl)-4-phenylpyrrolidin-2-one], the IC50 (class symbols) was in the range of 1000 to 10000 nM.

Under “class symbols”, `O=C1COC(c2ccccc2)CN1c1cc(N2CCOCC2)n2nc(-c3ccncc3)cc2n1` (stereo not drawn) [Compound 135, 4-(7-morpholino-2-(pyridin-4-yl)pyrazolo[1,5-a]pyrimidin-5-yl)-6-phenylmorpholin-3-one] displayed an IC50 of 1000 to 10000 nM.

`c1ccc(Cc2ncccc2-c2cc(N3CCOCC3)n3nc(-c4ccncc4)cc3n2)cc1` [Compound 39, 4-(5-(2-benzylpyridin-3-yl)-2-(pyridin-4-yl)pyrazolo[1,5-a]pyrimidin-7-yl)morpholine] had an IC50 (class symbols) of 1000 to 10000 nM.

These data come from patent US20250353852A1, “COMPOUNDS AND COMPOSITIONS THAT INHIBIT PIKFYVE” (Kineta, Inc., priority 2021, published 2025).
